What was measured:
[1] = target: T1, Multidrug resistance-associated protein 1 (Homo sapiens, UniProt P33527); assay: Inhibitory activity against MRP1 in HeLa-T5 cells; format: functional, cell-based
[2] = target: T1, Multidrug resistance-associated protein 1; assay: Inhibitory activity against MRP1-mediated LTC4 uptake into membrane vesicles from HeLa-T5 cells expressing MRP1; format: functional, cell-based

T1 sequence (P33527 whole entry): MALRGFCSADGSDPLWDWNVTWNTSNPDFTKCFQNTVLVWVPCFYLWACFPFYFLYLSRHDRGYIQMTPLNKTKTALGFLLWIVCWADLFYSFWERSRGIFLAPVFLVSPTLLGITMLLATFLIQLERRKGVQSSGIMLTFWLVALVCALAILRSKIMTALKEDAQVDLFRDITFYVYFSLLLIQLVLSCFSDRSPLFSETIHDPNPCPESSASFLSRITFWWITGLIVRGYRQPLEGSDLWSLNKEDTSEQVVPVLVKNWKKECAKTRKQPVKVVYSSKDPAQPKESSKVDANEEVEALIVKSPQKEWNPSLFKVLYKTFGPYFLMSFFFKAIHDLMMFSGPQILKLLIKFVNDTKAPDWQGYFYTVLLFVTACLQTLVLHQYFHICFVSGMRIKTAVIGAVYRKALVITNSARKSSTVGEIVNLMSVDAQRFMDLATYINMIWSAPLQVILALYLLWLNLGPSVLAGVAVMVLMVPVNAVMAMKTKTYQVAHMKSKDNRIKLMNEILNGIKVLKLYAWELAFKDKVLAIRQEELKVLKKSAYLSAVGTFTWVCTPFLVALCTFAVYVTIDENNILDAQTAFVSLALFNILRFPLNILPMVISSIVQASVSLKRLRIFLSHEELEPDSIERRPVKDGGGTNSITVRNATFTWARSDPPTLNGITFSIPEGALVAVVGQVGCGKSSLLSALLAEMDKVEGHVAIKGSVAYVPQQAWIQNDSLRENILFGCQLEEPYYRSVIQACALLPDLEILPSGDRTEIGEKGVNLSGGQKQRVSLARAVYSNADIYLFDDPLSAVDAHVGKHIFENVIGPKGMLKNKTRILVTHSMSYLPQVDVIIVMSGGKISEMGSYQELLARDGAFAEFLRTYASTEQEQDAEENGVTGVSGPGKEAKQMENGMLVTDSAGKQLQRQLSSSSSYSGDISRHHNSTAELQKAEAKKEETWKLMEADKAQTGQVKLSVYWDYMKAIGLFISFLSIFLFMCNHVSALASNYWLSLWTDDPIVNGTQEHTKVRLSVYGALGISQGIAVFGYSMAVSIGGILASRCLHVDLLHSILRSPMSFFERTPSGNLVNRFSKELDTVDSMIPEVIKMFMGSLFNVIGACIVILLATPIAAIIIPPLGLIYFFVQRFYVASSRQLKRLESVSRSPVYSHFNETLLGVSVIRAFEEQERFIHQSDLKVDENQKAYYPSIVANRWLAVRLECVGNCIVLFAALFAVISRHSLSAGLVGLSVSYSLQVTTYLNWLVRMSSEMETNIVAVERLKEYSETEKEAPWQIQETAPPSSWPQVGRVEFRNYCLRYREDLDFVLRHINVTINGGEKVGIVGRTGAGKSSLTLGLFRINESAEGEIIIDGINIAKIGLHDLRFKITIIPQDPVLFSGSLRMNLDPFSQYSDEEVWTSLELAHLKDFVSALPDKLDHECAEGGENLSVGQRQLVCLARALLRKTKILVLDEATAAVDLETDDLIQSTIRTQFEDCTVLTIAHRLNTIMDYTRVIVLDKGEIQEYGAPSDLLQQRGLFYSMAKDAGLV

EC50 [1] | IC50 [2] | SMILES
250 nM | 270 nM | COc1cc(C(=O)NC[C@@H]2CCC[C@H](n3c(=O)c4c(C)onc4c4c(Cl)cccc43)C2)cc(OC)c1OC (racemic)
640 nM | 1010 nM | Cc1onc2c1c(=O)n([C@H]1CCC[C@H](CNC(=O)c3ccccc3)C1)c1cccc(Cl)c21 (racemic)
180 nM | 38 nM | Cc1onc2c1c(=O)n([C@H]1CCC[C@@H](CNC(=O)c3ccccc3)C1)c1cccc(Cl)c21 (racemic)
420 nM | – | COc1cc(C(=O)NC[C@H]2CCC[C@H](n3c(=O)c4c(C)onc4c4c(Cl)cccc43)C2)cc(OC)c1OC (racemic)
